# Results published in PMC6469168, “Localization of ^99mTc-GRP Analogs in GRPR-Expressing Tumors: Effects of Peptide Length and Neprilysin Inhibition on Biological Responses” (Pharmaceuticals, 2019).
# Like-named read-outs stand apart in the source and are kept apart here. Where no end group is shown, it is not given here. The star is where a group is joined. DOTA = O=C(O)CN1CCN(CC(=O)O)CCN(CC(=O)*)CCN(CC(=O)O)CC1; N4 = tetraamine chelator for 99mTc
# Legend:
# [1] = target: T1, GRPR-sites on PC-3 cell membranes (Homo sapiens, UniProt P30550); assay: Competition binding against [^125I-Tyr^4]BBN in PC-3 cell membranes; settings: 1 h at 22 °C, 50 pM radioligand, triplicates per concentration, read-out: IC50, [^125I-Tyr^4]BBN displacement from GRPR-sites
# T1 construct: PC-3 cells endogenously expressing the human GRPR; host or cells: PC-3 cell-membrane homogenates
# Method: Moreover, coupling of the positively charged acyclic tetraamine unit in the N-terminus of parent GRP(14/18–27) references improved the affinity of resulting analogs to the GRPR, as previously reported for similarly modified peptide analogs.
# (b) GRPR-specific internalization of ^99mTc-N4-GRP(14–27) (red solid line) and ^99mTc-N4-GRP(18–27) (blue solid line) in PC-3 cells during incubation at 37 °C at 15, 30, 60, and 120 min. Results represent average of cell internalized activity ± sd, n = 3; data is corrected for nonspecific internalization in the presence of 1 µM [Tyr^4]BBN.
# Competition binding experiments against [^125I-Tyr^4] […] For the assay, triplicates per concentration point (concentration range: 10^−13–10^−6 M) of each test peptide were incubated together with the radioligand (~40,000 cpm per assay tube at a 50 pM concentration) in PC-3 cell-membrane homogenates in a total volume of 300 μL binding buffer (BB, 50 mM HEPES pH 7.4, 1% BSA, 5.5 mM MgCl2, 35 μM bacitracin) for 1 h at 22 °C in an Incubator-Orbital Shaker (MPM Instr. SrI, Bernareggio, Italy). Binding was interrupted by ice-cold washing buffer (WB, 10 mM HEPES pH 7.4, 150 mM NaCl) and rapid filtration (Whatman GF/B filters presoaked in BB) on a Brandel Cell Harvester (Adi Hassel Ing. Büro, Munich, Germany). Filters were washed with ice-cold WB and counted in an automatic well-type gamma counter (NaI(Tl) 3′-crystal, Cobra Packard Auto-Gamma 5000 series instrument). The IC50 values were calculated using nonlinear regression according to a one-site model applying the PRISM 2 program (Graph Pad Software, San Diego, CA, USA).
# [2] = target: T2, BB3R in human lung (bronchial) carcinoids (Homo sapiens, UniProt P32247); assay: Receptor autoradiography competition binding vs ^125I-[DTyr^6,βAla^11,Phe^13,Nle^14]BBN(6–14) in human tumor sections; settings: human lung (bronchial) carcinoid sections, same universal radioligand, mean ± SEM, n in parentheses, read-out: IC50s in nM, BB3R
# T2 construct: from tissue; host or cells: human bronchial carcinoid cryostat sections
# T2 sequence (P32247 1-399): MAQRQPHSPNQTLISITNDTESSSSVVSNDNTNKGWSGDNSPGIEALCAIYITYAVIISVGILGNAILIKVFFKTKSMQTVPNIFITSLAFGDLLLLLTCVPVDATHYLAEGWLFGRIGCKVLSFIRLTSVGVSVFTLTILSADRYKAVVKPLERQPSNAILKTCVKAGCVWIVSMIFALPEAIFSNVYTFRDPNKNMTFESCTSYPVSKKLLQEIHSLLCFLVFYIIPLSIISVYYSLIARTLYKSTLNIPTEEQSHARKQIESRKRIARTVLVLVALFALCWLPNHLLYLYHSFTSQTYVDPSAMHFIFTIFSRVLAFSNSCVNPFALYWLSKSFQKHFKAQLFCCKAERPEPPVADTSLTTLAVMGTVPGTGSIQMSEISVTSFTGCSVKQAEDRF
# Text: IC50 values are given in nM ± SEM.
# GRPR = settings: DOTA-derivatized analogs; read-out: IC50, GRPR binding affinity; cited from earlier work
# Text: It is interesting to note that the presence of the positively charged N4^+x-moiety at positions 13 and 17 of the native GRP chain occupy the two basic amino acids Lys^13 and Arg^17.
# [3] = target: T3, GRPR expressed in human prostate cancer (Homo sapiens, UniProt P30550); settings: receptor autoradiography, human prostate cancer sections; mean, n = 2; read-out: IC50s in nM, GRPR; cited from earlier work
# T3 construct: from tissue; host or cells: human prostate carcinoma cryostat sections
# Text: (§1) Table 1 Affinities for the three human bombesin receptor subtypes. | column: IC50s in nM / GRPR ^1 || The selective affinities of N4-GRP(14–27) for each of the three bombesin receptor subtypes found in mammals were studied during in vitro competition binding assays against the universal radioligand ^125I-[DTyr^6,βAla^11,Phe^13,Nle^14]BBN(6–14). Receptor autoradiography was applied in cryostat sections of well characterized human cancers, preferentially expressing one of the subtypes.
# [4] = target: T2, BB3R in human lung (bronchial) carcinoids; settings: receptor autoradiography, human lung carcinoid sections; read-out: IC50s in nM, BB3R; cited from earlier work
# Text: Receptor autoradiography was applied in cryostat sections of well characterized human cancers, preferentially expressing one of the subtypes.
# [5] = target: T4, NMBR in human ileal carcinoids (Homo sapiens, UniProt P28336); settings: receptor autoradiography, human ileal carcinoid sections; mean, n = 2; read-out: IC50s in nM, NMBR; cited from earlier work
# T4 construct: from tissue; host or cells: human ileal carcinoid cryostat sections
# Text: as §1, with “NMBR ^2” for “GRPR ^1”
# PC-3 cells = assay: Internalization assay in PC-3 cells; assay type: cell-based, human; settings: 37 °C, corrected for nonspecific (1 µM [Tyr^4]BBN), average ± sd, n = 3
# Method: In both cases the bulk of cell-associated radioactivity was found in the cells with ^99mTc-N4-GRP(14–27) internalizing much faster in PC-3 cells compared to ^99mTc-N4-GRP(18–27) at all time intervals (Figure 3b).
# The internalization rates of ^99mTc-N4-GRP(14–27) and ^99mTc-N4-GRP(18–27) were compared in PC-3 cells. Briefly, PC-3 cells were seeded in six-well plates (~1 × 10^6 cells per well) 24 h before the experiment. Approximately 50,000 cpm of either ^99mTc-N4-GRP(14–27) or ^99mTc-N4-GRP(18–27) (corresponding to 250 fmol total peptide in 150 μL of 0.5% BSA/PBS) was added alone (total) or in the presence of 1 μM [Tyr^4]BBN (nonspecific). Cells were incubated at 37 °C for 15, 30, 60, and 120 min and incubation was interrupted each time by placing the plates on ice, removing the supernatants and rapid rinsing with ice-cold 0.5% BSA/PBS. Cells were then treated 2 × 5 min with acid wash buffer (2 × 0.6 mL, 50 mM glycine buffer pH 2.8, 0.1 M NaCl) at room temperature and supernatants were collected (membrane-bound fraction). After rinsing with 1 mL chilled 0.5% BSA/PBS, cells were lysed by treatment with 1 N NaOH (2 × 0.6 mL) and lysates were collected (internalized fraction). Sample radioactivity was measured in the γ-counter and percent internalized radioactivity was determined vs. total added activity. Results represent the average values ± sd of three experiments performed in triplicate.
# T1 sequence (P30550 whole entry): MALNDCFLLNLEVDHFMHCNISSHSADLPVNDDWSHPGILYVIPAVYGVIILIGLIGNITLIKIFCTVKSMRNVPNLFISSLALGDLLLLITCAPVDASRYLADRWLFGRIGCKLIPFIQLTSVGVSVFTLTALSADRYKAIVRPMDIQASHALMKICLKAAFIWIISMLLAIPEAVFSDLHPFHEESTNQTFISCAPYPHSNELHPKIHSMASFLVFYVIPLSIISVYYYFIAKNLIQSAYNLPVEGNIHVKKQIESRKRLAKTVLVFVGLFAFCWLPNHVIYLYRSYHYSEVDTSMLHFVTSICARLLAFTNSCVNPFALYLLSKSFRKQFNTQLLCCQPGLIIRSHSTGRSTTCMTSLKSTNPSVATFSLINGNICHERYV
# T3 sequence (P30550 whole entry): as above
# T4 sequence (P28336 whole entry): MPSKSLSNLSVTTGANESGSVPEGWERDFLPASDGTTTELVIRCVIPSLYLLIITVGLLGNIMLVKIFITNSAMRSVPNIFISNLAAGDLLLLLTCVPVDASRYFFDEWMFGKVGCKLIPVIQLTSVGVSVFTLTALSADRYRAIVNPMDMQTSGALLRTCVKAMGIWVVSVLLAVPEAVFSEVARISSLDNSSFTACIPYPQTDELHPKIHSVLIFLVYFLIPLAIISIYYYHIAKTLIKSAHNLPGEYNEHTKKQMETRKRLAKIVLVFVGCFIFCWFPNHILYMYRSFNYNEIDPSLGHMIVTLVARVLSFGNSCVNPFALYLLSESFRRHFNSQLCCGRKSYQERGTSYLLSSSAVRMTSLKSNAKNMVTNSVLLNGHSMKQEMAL
compound,measurement,setting,value
CSCC[C@H](NC(=O)[C@H](CC(C)C)NC(=O)[C@H](Cc1c[nH]cn1)NC(=O)CNC(=O)[C@@H](NC(=O)[C@H](C)NC(=O)[C@H](Cc1c[nH]c2ccccc12)NC(=O)[C@H](Cc1c[nH]cn1)NC(=O)[C@H](CC(N)=O)NC(=O)CNC(=O)[C@H](CCCNC(=N)N)NC(=O)[C@@H]1CCCN1C(=O)[C@H](Cc1ccc(O)cc1)NC(=O)[C@@H](N)CCSC)C(C)C)C(N)=O [GRP(14–27)],IC50,[1],0.45 ± 0.02 nM
"CSCC[C@H](NC(=O)[C@H](CC(C)C)NC(=O)[C@H](Cc1cnc[nH]1)NC(=O)CNC(=O)[C@@H](NC(=O)[C@H](C)NC(=O)[C@H](Cc1c[nH]c2ccccc12)NC(=O)[C@H](Cc1cnc[nH]1)NC(=O)[C@H](CC(N)=O)NC(=O)CN)C(C)C)C(N)=O [GRP(18–27), H-Gly-Asn-His-Trp-Ala- Val-Gly-His-Leu-Met-NH2]",IC50,[1],1.66 ± 0.2 nM
CSCC[C@H](NC(=O)[C@H](CC(C)C)NC(=O)[C@H](Cc1c[nH]cn1)NC(=O)CNC(=O)[C@@H](NC(=O)[C@H](C)NC(=O)[C@H](Cc1c[nH]c2ccccc12)NC(=O)[C@H](Cc1c[nH]cn1)NC(=O)[C@H](CC(N)=O)NC(=O)CNC(=O)[C@H](CCCNC(=N)N)NC(=O)[C@@H]1CCCN1C(=O)[C@H](Cc1ccc(O)cc1)NC(=O)[C@H](CCSC)NC(=O)C(CNCCN)CNCCN)C(C)C)C(N)=O [N4-GRP(14–27)],IC50,[2],> 1000 nM
same,IC50,[1],0.32 ± 0.03 nM
CSCC[C@H](NC(=O)[C@H](CC(C)C)NC(=O)[C@H](Cc1c[nH]cn1)NC(=O)CNC(=O)[C@@H](NC(=O)[C@H](C)NC(=O)[C@H](Cc1c[nH]c2ccccc12)NC(=O)[C@H](Cc1c[nH]cn1)NC(=O)[C@H](CC(N)=O)NC(=O)CNC(=O)C(CNCCN)CNCCN)C(C)C)C(N)=O [N4-GRP(18–27)],IC50,[1],0.63 ± 0.06 nM
"DOTA-GRP(14–27): GRP(14–27) coupled to DOTA, previously reported ({DOTA}-MYPRGNHWAVGHLM-NH2; ends and bridges not checked; UniProt P07492 37-50, looked up, fragment)",IC50,GRPR,6.6 ± 0.9 nM
"DOTA-GRP(18–27): GRP(18–27) coupled to DOTA, previously reported",IC50,GRPR,112 ± 16 nM
"N4-[Pro^1,Tyr^4]BBN (PQRYGNQWAVGHLM) [Demobesin 3, tetraamine derivatized BBN-like analog]",IC50,[3],0.5 nM
same,IC50,[4],> 100 nM
"N4-[Pro^1,Tyr^4]BBN (PQRYGNQWAVGHLM; not fully specified (N-terminus); ends and bridges not checked) [Demobesin 3, tetraamine derivatized BBN-like analog]",IC50,[5],1.6 nM
"^99mTc-N4-GRP(14–27): ^99mTc-labeled N4-GRP(14–27) radioligand (N4-MYPRGNHWAVGHLM-NH2; ends and bridges not checked; also: 99mTc complex at N4; UniProt P07492 37-50, looked up, fragment)","specifically internalized, % of total added activity",PC-3 cells; 1 h,12.7 ± 0.7%
same,"specifically internalized, % of total added activity",PC-3 cells; 2 h,19.5 ± 1.4%
"^99mTc-N4-GRP(18–27): ^99mTc-labeled N4-GRP(18–27) radioligand (N4-GNHWAVGHLM-NH2; ends and bridges not checked; also: 99mTc complex at N4; UniProt P07492 41-50, looked up, fragment)","specifically internalized, % of total added activity",PC-3 cells; 1 h,5.0 ± 0.3%
same,"specifically internalized, % of total added activity",PC-3 cells; 2 h,6.9 ± 1.5%
